# From patent publication US20140031217A1, “HERBICIDAL COMPOSITIONS COMPRISING 4-AMINO-3-CHLORO-5-FLUORO-6-(4-CHLORO-2-FLUORO-3-METHOXYPHENYL)PYRIDINE-2-CARBOXYLIC ACID OR A DERIVATIVE THEREOF AND AUXIN TRANSPORT INHIBITORS” (DOW AGROSCIENCES LLC, priority 2012, published 2014)
# How the values were obtained:
# BRAPP = assay: Postemergence foliar-applied greenhouse weed control, BRAPP; assay type: in vivo, Brachiaria platyphylla (Griseb.) Nash
# Text: (§1) Seeds or nutlets of the desired test plant species were planted in a soil matrix prepared by mixing a loam or sandy loam soil (e.g., 28.6 percent silt, 18.8 percent clay, and 52.6 percent sand, with a pH of about 5.8 and an organic matter content of about 1.8 percent) and calcareous grit in an 80 to 20 ratio. The soil matrix was contained in plastic pots with a volume of 1 quart and a surface area of 83.6 square centimeters (cm^2). When required to ensure good germination and healthy plants, a fungicide treatment and/or other chemical or physical treatment was applied. The plants were grown for 8-22 days in a greenhouse with an approximate 14 h photoperiod which was maintained at about 29° C. during the day and 26° C. during the night. Nutrients (Peters Excel® 15-5-15 5-Ca 2-Mg and iron chelate) were applied in the irrigation solution as needed and water was added on a regular basis. Supplemental lighting was provided with overhead metal halide 1000-Watt lamps as necessary. The plants were employed for testing when they reached the first through fourth true leaf stage.
# (§2) Treatments consisted of the acid or esters of 4-amino-3-chloro-5-fluoro-6-(4-chloro-2-fluoro-3-methoxy-phenyl) pyridine-2-carboxylic acid (Compound A), each formulated as an SC (suspension concentrate), and various herbicidal components alone and in combination. Forms of compound A were applied on an acid equivalent basis.
# (§3) Other herbicidal components were applied on an active ingredient basis and included auxin transport inhibiting (ATI) herbicides chlorflurenol (technical material), chlorflurenol-methyl (technical material), diflufenzopyr (technical material), diflufenzopyr sodium (technical material), flurenol-methyl (technical material) and naptalam (technical material).
# (§4) Treatment requirements were calculated based upon the rates being tested, the concentration of active ingredient or acid equivalent in the formulation, and a 12 mL application volume at a rate of 187 L/ha.
# (§5) For treatments comprised of formulated and technical compounds, weighed amounts of the technical materials were placed individually in 25 mL glass vials and dissolved in a volume of 97:3 v/v acetone/DMSO to obtain 12× stock solutions, and measured amounts of the formulated compounds were placed individually in 25 mL glass vials and diluted in a volume of 1.5% (v/v) crop oil concentrate or water to obtain 12× stock solutions. […] Application solutions were prepared by adding an appropriate amount of each stock solution (e.g., 1 mL) and diluted to the appropriate final concentrations with the addition of an appropriate amount of an aqueous mixture of 1.5% (v/v) crop oil concentrate so that the final spray solutions contained 1.25% (v/v) crop oil concentrate. When required, additional water and/or 97:3 v/v acetone/DMSO was added to individual application solutions so that the final acetone and DMSO concentrations of the application solutions being compared were 8.1% and 0.25%, respectively.
# (§6) All stock solutions and applications solutions were visually inspected for compound compatibility prior to application. Spray solutions were applied to the plant material with an overhead Mandel track sprayer equipped with an 8002E nozzle calibrated to deliver 187 L/ha over an application area of 0.503 m^2 at a spray height of 18 to 20 inches (46 to 50 cm) above average plant canopy height. Control plants were sprayed in the same manner with the solvent blank.
# (§7) The treated plants and control plants were placed in a greenhouse as described above and watered by sub-irrigation to prevent wash-off of the test compounds. After approximately 3 weeks, the condition of the test plants as compared with that of the untreated plants was determined visually and scored on a scale of 0 to 100 percent where 0 corresponds to no injury or growth inhibition and 100 corresponds to complete kill. […]
# IPOHE = assay: Postemergence foliar-applied greenhouse weed control, IPOHE; assay type: in vivo, Ipomoea hederacea Jacq.
# Text: as §1, §2, §3, §4, §5, §6, §7
structure (smiles),measurement,setting,value
"COc1c(Cl)ccc(-c2nc(C(=O)O)c(Cl)c(N)c2F)c1F [Compound A Acid, 4-amino-3-chloro-6-(4-chloro-2-fluoro-3-methoxyphenyl)-5-fluoropyridine-2-carboxylic acid]",Visual Weed Control (%) Obs,"BRAPP; 21 DAA, 8.75 gae/ha",60%
same,Visual Weed Control (%) Obs,"IPOHE; 20 DAA, 4.38 gae/ha",20%
same,Visual Weed Control (%) Obs,"IPOHE; 20 DAA, 8.75 gae/ha",20%
same,Visual Weed Control (%) Obs,"IPOHE; 20 DAA, 17.5 gae/ha",50%
COc1c(Cl)ccc(-c2nc(C(=O)OCc3ccccc3)c(Cl)c(N)c2F)c1F [Compound A Benzyl Ester],Visual Weed Control (%) Obs,"BRAPP; 21 DAA, 4.38 gae/ha",70%
same,Visual Weed Control (%) Obs,"BRAPP; 21 DAA, 8.75 gae/ha",75%
same,Visual Weed Control (%) Obs,"BRAPP; 21 DAA, 17.5 gae/ha",95%
same,Visual Weed Control (%) Obs,"BRAPP; 22 DAA, 8 gae/ha",35%
same,Visual Weed Control (%) Obs,"BRAPP; 22 DAA, 16 gae/ha",80%
same,Visual Weed Control (%) Obs,"IPOHE; 20 DAA, 4.38 gae/ha",10%
same,Visual Weed Control (%) Obs,"IPOHE; 20 DAA, 8.75 gae/ha",15%
same,Visual Weed Control (%) Obs,"IPOHE; 21 DAA, 4.38 gae/ha",10%
same,Visual Weed Control (%) Obs,"IPOHE; 21 DAA, 8.75 gae/ha",10%
same,Visual Weed Control (%) Obs,"IPOHE; 21 DAA, 17.5 gae/ha",25%
same,Visual Weed Control (%) Obs,"IPOHE; 22 DAA, 8 gae/ha",0%
same,Visual Weed Control (%) Obs,"IPOHE; 22 DAA, 16 gae/ha",25%
same,Visual Weed Control (%) Obs,"IPOHE; 22 DAA, 32 gae/ha",50%
